Results reported in PMC4303209, “A novel phosphatidylinositol 3-kinase (PI3K) inhibitor directs a potent FOXO-dependent, p53-independent cell cycle arrest phenotype characterized by the differential induction of a subset of FOXO-regulated genes” (Breast Cancer Research : BCR, 2014).

Test system: MCF-7 breast cancer cells
Assay: Microarray gene expression analysis (Agilent whole human genome 4 x 44K; compound vs DMSO, LIMMA log2 fold change)
Format: cell-based
Conditions: Apoptosis genes

Oc1cccc(-c2nc(N3CCOCC3)c3oc4ncccc4c3n2)c1 [PI-103]
BMPR1B log2FC (Gene 658): -0.150
BMX log2FC (Gene 660): 0.041
BNIP1 log2FC (Gene 662): 0.320
BNIP2 log2FC (Gene 663): 0.429
BNIP3 log2FC (Gene 664): 0.757
BNIP3L log2FC (Gene 665): 1.132
FOXL2 log2FC (Gene 668): -0.465
BRCA1 log2FC (Gene 672): 0.741
BRAF log2FC (Gene 673): 0.018
BRCA2 log2FC (Gene 675): 0.100
BTC log2FC (Gene 685): 0.236
BTG1 log2FC (Gene 694): 1.197
BUB1 log2FC (Gene 699): 0.591
BUB1B log2FC (Gene 701): 0.146
TSPO log2FC (Gene 706): 0.105
C5AR1 log2FC (Gene 728): 0.079
CACNA1A log2FC (Gene 773): -0.069
CALR log2FC (Gene 811): -0.161
CAMK2B log2FC (Gene 816): 0.010
CAST log2FC (Gene 831): 0.459
CASP1 log2FC (Gene 834): 0.025
CASP2 log2FC (Gene 835): -0.763
CASP3 log2FC (Gene 836): 0.305
CASP4 log2FC (Gene 837): 0.021
CASP5 log2FC (Gene 838): -0.191
CASP6 log2FC (Gene 839): 0.478
CASP7 log2FC (Gene 840): -0.335
CASP8 log2FC (Gene 841): 0.045
CASP9 log2FC (Gene 842): 0.133
CASR log2FC (Gene 846): 0.046
CAT log2FC (Gene 847): 0.456
CAV1 log2FC (Gene 857): 0.357
RUNX3 log2FC (Gene 864): -0.359
CBL log2FC (Gene 867): 0.455
CBS log2FC (Gene 875): -0.393
KRIT1 log2FC (Gene 889): 0.580
CCNG1 log2FC (Gene 900): 0.460
CD2 log2FC (Gene 914): -0.198
CD3E log2FC (Gene 916): -0.245
CD3G log2FC (Gene 917): -0.217
CD5 log2FC (Gene 921): 0.023
CD5L log2FC (Gene 922): -0.081
CD14 log2FC (Gene 929): -0.379
CD28 log2FC (Gene 940): 0.036
CD40 log2FC (Gene 958): -0.612
CD44 log2FC (Gene 960): -0.262
CD59 log2FC (Gene 966): -0.006
CD74 log2FC (Gene 972): 0.013
CDC34 log2FC (Gene 997): 0.509
CDC42 log2FC (Gene 998): 0.080
CDK4 log2FC (Gene 1019): 0.170
CDKN1A log2FC (Gene 1026): -1.229
CDKN1B log2FC (Gene 1027): 1.116
CDKN2A log2FC (Gene 1029): 0.303
CDKN2D log2FC (Gene 1032): 0.903
CEBPB log2FC (Gene 1051): -0.197
CFL1 log2FC (Gene 1072): -0.246
CTSC log2FC (Gene 1075): -0.333
CGB log2FC (Gene 1082): -0.180
CLU log2FC (Gene 1191): 0.052
CLN3 log2FC (Gene 1201): -0.046
CCR7 log2FC (Gene 1236): 0.113
PLK3 log2FC (Gene 1263): -1.591
CNR1 log2FC (Gene 1268): 0.471
ATF2 log2FC (Gene 1386): 0.878
CRH log2FC (Gene 1392): 0.059
CRIP1 log2FC (Gene 1396): 0.723
CRYAA log2FC (Gene 1409): -0.050
CRYAB log2FC (Gene 1410): -0.029
MAPK14 log2FC (Gene 1432): -0.303
CSE1L log2FC (Gene 1434): 0.551
CSF2 log2FC (Gene 1437): -0.616
CSNK2A1 log2FC (Gene 1457): -0.647
CSNK2A2 log2FC (Gene 1459): 0.329
CSTB log2FC (Gene 1476): 0.261
NKX2-5 log2FC (Gene 1482): -0.572
CTGF log2FC (Gene 1490): -0.354
CTH log2FC (Gene 1491): 0.722
